Results on 4 molecules are retold here after US4690949A, “Therapeutic drug for dementia” (priority 1985, dated 1987).

SMILES strings stand for the structures. Entries after “also recorded” stand apart in the source; their conditions may differ.

Data set [1] is described as follows: Acute toxicity LD50 in mice. Conditions: mouse, in vivo.
The test system of data set [2] is patients with dementia. Briefly: Side effects in clinical study. The data set is classed as in vivo. The protocol: (§1) Administration schedule of L-Threo-DOPS and schedule of clinical evaluation are as follows: [drawing 3]
(§2) Threo-DOPS were administered as follows; immediately after meals at 8:00, 12:00 and 17:00. Various psychological tests were performed at 10:00. The evaluations were performed on the day before and after administration of Threo-DOPS.

In another data set the test system is decarboxylase. Conditions: compared with L-DOPA; cited from earlier work.
A further data set relates to parkinsonian patients. Description: Clinical studies on parkinsonian patients. It counts as in vivo.
Data set [3] deals with aromatic L-amino acid decarboxylase. The conditions noted are these: cited from earlier work.
Data set [4] concerns patients with dementia. Briefly: Overall clinical evaluation of effectiveness in dementia. The data set is classed as in vivo.
From the text: (§3) We have used following various tests: WAIS, Hasegawa's scale for intelligence, Osaka University tests for activity of daily life as well as mental functions, and records of psychological states. Furthermore, free association of letters and categories, paired memory test, Bourdon's test could safely be used to evaluate intelligence of demented patients, even with handicaps in hands or legs. We have done each test 4 times per patient at each point to evaluate the patient's mental state and thus this made us possible to get satisfactory statistical analysis.
Dementia could be classified into various clinical types according to the ethiology; such as Alzheimer's disease (AZ), senile dementia of Alzheimer type (SDAT), dementia due to the cerebral vascular diseases. We included these various types of dementia in this study.
as §1, §2
Evaluations were made as described below or by the methods used commonly.

The subject of data set [5] is patients with dementia. Briefly: Digit symbol test (modified WAIS). It counts as in vivo.
From the text: as §3, §1, §2
The original method of WAIS was partially modified. The test was repeated 4 times and counted time-in seconds which was required to finish one line or checked how far the subject could go along one line in 30 seconds.

The test system of data set [6] is patients with dementia. Briefly: Bourdon's test (Bourdon's delection test). Details: key to Bourdon's test (change after treatment): improved; .dwnarw.: aggravated; →: unchanged. The data set is classed as in vivo.
From the text: as §3, §1, §2
3. Bourdon's delection test:
Matsumoto K and Samezima K: Introduction to Clinical Psychology Tests, Igaku Shuppan Sha (Tokyo), 1977, pp. 83-87
In this test, the original method was modified by enlarging the chart to make it easier for patients to see and conducting 4 test runs starting at different lines to investigate how far the task could be done in 30 seconds.

Data set [7] deals with patients with dementia. Briefly: Free association (letters and categories). The data set is classed as in vivo. Details: key to Free association, Letter / Free association, Category: improved; .dwnarw.: aggravated; →: unchanged.
From the text: as §3, §1
Threo-DOPS were administered as follows; immediately after meals at 8:00, 12:00 and 17:00. Various psychological tests were performed at 10:00. The evaluations were performed on the day before and after administration of Threo-DOPS. […]
In this test, the subject was asked to say what would occur in mind by free association in response to the 4 letters of " " (a), " " (ka), " " (sa) and " " (ha) and the four categories of "fruits" or "vegetables", "flowers or trees", "animals" and "countries of the world" within 90 seconds and the number of words every 30 seconds was counted.

Data set [8] concerns patients with dementia. Description: N test (N mental function test). The data set is classed as in vivo. Details: key to N test (change after treatment): improved; .dwnarw.: aggravated; →: unchanged.
From the text: as §3, §1, §2
Inoue, O.: Medical Journal of the Osaka University 26, 375-394 (1974)

The test system of data set [9] is patients with dementia. Description: Related words paired memory test. Also noted: key to Related words paired memory test (change after treatment): improved; .dwnarw.: aggravated; →: unchanged. It counts as in vivo.
From the text: as §3, §1, §2
This retention test using 10 pairs of related words was conducted in 4 trials and the results were compared before and after the treatment.

The subject of data set [10] is patients with dementia. Briefly: Hasegawa's scale for intelligence. Also noted: key to Hasegawa (change after treatment): improved; .dwnarw.: aggravated; →: unchanged. It counts as in vivo. Conditions: for Hasegawa (change after treatment): 10 percent change from pretreatment baseline score.
From the text: as §3, §1, §2
An increase or decrease of 10 percent from the pretreatment baseline score was regarded as "improved" or "aggravated".

Data set [11] can be described thus: Clinical comparison of L-isomer and DL-form activity. The data set is classed as in vivo.
Data set [12] concerns patients with dementia. Description: P300 auditory evoked brain potential. The data set is classed as in vivo. Details: key: +: appeared; -: disappeared. How it is done:
as §1, §2
When two kinds of auditory stimuli are given randomly, a positive brain potential (P300) appears with a latency of about 300 msec in normal subjects and this response has been considered to reflect gnostic function. [Sutton, S. et al.: Science 150, 1187-1188 (1965)].
Using the method of Goodin, D. S. et al., the present inventors asked the subject to hear sounds of 1000 Hz and also 2000 Hz randomly given at intervals of about 1 second and to count the sounds of 2000 Hz which appeared 15% of the total number of sounds which were 400. The evoked potentials were averaged and totalled for each 1000 Hz and 2000 Hz stimulations and the latency and the amplitude of P300 were measured.

Setting [13] is: Case 1, Alzheimer's disease (case report).
Setting [14] is: Case 7, left thalamic hemorrhage (case report).
[15] abbreviates: Case 9, cerebral infarction (case report).

For the molecule `N[C@H](C(=O)O)[C@H](O)c1ccc(O)c(O)c1` (relative stereo) [DL-Threo-DOPS], the values for the LD50 in data set [1] (ip) and in data set [1] (po) were about 10000 mg/kg and at least 10000 mg/kg, respectively. In addition, the “Side effects (clinically)” value in the data set with patients with dementia [2] (human, in vivo) was “almost no side effect has been observed”.

For the molecule `N[C@H](C(=O)O)[C@H](O)c1ccc(O)c(O)c1` (relative stereo) [Threo-DOPS, threo-3,4-dihydroxyphenylserine], the Side effects entry with patients with dementia [2] (human, in vivo) is listed as “without any appreciable side effects”. In addition, in the data set on decarboxylase, the “Effectiveness of combined use of DCI” value was “not so effective as that for L-DOPA”. The “Effectiveness as a NE precursor” value in the data set on parkinsonian patients is on record as “effectiveness of Threo-DOPS as a NE precursor”. The “Conversion to norepinephrine (NE)” value in data set [3] (in the living body) was “decarboxylated by an action of an aromatic L-amino acid decarboxylase existing in the living body and converted into norepinephrine (NE); also recorded: gradually converted to NE in the living body”. For the same molecule, the “Rate of decarboxylation relative to L-DOPA” value in [3] (previous study of the present applicants) is given as “considerably smaller than that of L-DOPA”. Further, the “Effect on symptoms of dementia” value in the data set on patients with dementia [4] (summary statement) is reported as “improving effect on some symptoms of dementia”.

Take `N[C@@H](Cc1ccc(O)c(O)c1)C(=O)O` [L-DOPA, reference compound]: in data set [3] (in the living body), the Decarboxylation to dopamine result is recorded as “decarboxylated to the corresponding catecholamine, dopamine”.

For `N[C@H](C(=O)O)[C@H](O)c1ccc(O)c(O)c1` [L-Threo-DOPS], the LD50 in data set [1] (ip) was about 10000 mg/kg; in data set [1] (po), at least 10000 mg/kg. In addition, in the data set with patients with dementia [5] (Case 1, AZ), the “Digit symbol test, statistics” value is “* (P<0.05)”. Also, the Digit symbol test result with patients with dementia [5] (setting [13]) is “Improvements were found”. For the same molecule, the Side effects entry in the data set on patients with dementia [2] (Case 9, cerebral infarction) was “No remarkable side effects were found”. Besides, the “Side effects (clinically)” value with patients with dementia [2] (human, in vivo) is “almost no side effect has been observed”. The “Bourdon's test (change after treatment)” value with patients with dementia [6] (Case 1, AZ) is “→”; with patients with dementia [6] (Case 2, AZ), “→”; in the data set with patients with dementia [6] (Case 3, CI), “→”; in the data set with patients with dementia [6] (Case 6, AZ/CI, person), “→”; in the data set on patients with dementia [6] (Case 9, CI) it was “→”. Further, the “Bourdon's test, statistics” value with patients with dementia [6] (Case 4, CI) is given as “** (P<0.02)”. In addition, the “Free association, Category” value is given as “→” with patients with dementia [7] (Case 2, AZ); “→” in the data set on patients with dementia [7] (Case 3, CI); “→” in the data set with patients with dementia [7] (Case 4, CI); “→” in the data set on patients with dementia [7] (Case 5, CI); “→” in the data set with patients with dementia [7] (Case 6, AZ/CI, person); “→” in the data set with patients with dementia [7] (Case 9, CI). Further, the “Free association, Letter” value was “→” with patients with dementia [7] (Case 2, AZ); “→” in the data set with patients with dementia [7] (Case 4, CI); “→” with patients with dementia [7] (Case 5, CI); “→” in the data set on patients with dementia [7] (Case 6, AZ/CI, person); “→” in the data set with patients with dementia [7] (Case 9, CI). In addition, the “Free association of things” value in the data set with patients with dementia [7] (setting [14]) is listed as “Improvements were obtained”. Further, the “N test (change after treatment)” value was “→” with patients with dementia [8] (Case 5, CI) and “→” in the data set on patients with dementia [8] (Case 6, AZ/CI, person). Moreover, the “N mental function test” value with patients with dementia [8] (setting [14]) was “Improvements were obtained”; in the data set on patients with dementia [8] (setting [15]), “Improvements were found”. The “Related words paired memory test, statistics” value was “*** (P<0.01)” in the data set on patients with dementia [9] (Case 1, AZ); “*** (P<0.01)” with patients with dementia [9] (Case 2, AZ); “* (P<0.05)” with patients with dementia [9] (Case 5, CI); “** (P<0.02)” in the data set on patients with dementia [9] (Case 9, CI). The “Related words paired memory test” value with patients with dementia [9] (setting [13]) and in the data set on patients with dementia [9] (setting [15]) was “Improvements were found” in each case. Further, the “Related words paired memory test (change after treatment)” value is “→” in the data set with patients with dementia [9] (Case 4, CI); “.uparw” in the data set with patients with dementia [9] (Case 5, CI); “→” with patients with dementia [9] (Case 6, AZ/CI, person). Moreover, the “Hasegawa (change after treatment)” value is reported as “.dwnarw” in the data set with patients with dementia [10] (Case 3, CI) and “→” with patients with dementia [10] (Case 6, AZ/CI, person). Further, the “Hasegawa's scale” value was “Improvements were obtained” in the data set with patients with dementia [10] (setting [14]) and “Improvements were found” in the data set on patients with dementia [10] (setting [15]). Moreover, in data set [11] (administered in half the amount of the DL-mixture), the “Effect of L-isomer at half the amount of the DL-mixture” value is reported as “nearly the same effect as the DL-mixture”. Also, in [11] (clinical study), the “Activity of L-isomer relative to DL-form” value is recorded as “twice as active as the DL-form”. The Overall evaluation result with patients with dementia [4] (Case 1, Alzheimer's disease) is on record as “moderately improved”. In addition, the Global evaluation entry with patients with dementia [4] (Case 7, left thalamic hemorrhage) is recorded as “markedly improved”; with patients with dementia [4] (Case 9, cerebral infarction), “moderately improved”. Also, the “Evaluation parameters showing aggravation” value in the data set on patients with dementia [4] (Cases 1 to 9, Table 1) was “only a few evaluation parameters showed aggravation”. In addition, the “Subjects showing improvements in one or more tests” value in the data set on patients with dementia [4] (Cases 1 to 9, Table 1) is given as “all subjects but Case 6 showed improvements in one or more tests”. In addition, in the data set with patients with dementia [4] (as a whole), the “Overall evaluation: efficacy against symptoms of patients with dementia” value is reported as “had efficacy against symptoms of patients with dementia”. The P300 result was “+” with patients with dementia [12] (Case 2, AZ); “-” in the data set on patients with dementia [12] (Case 3, CI); “+” in the data set on patients with dementia [12] (Case 4, CI); “-” in the data set with patients with dementia [12] (Case 5, CI); “-” in the data set on patients with dementia [12] (Case 6, AZ/CI, person); “could not be observed before the treatment, appeared after the treatment” in the data set on patients with dementia [12] (setting [14]). Moreover, the P300 entry in the data set with patients with dementia [12] (Case 9, CI) is “-”.

Usually LD50 stands for the dose at which mortality reaches 50%.
